# Measurements: patent US9956187B2 (priority 2014, dated 2018)
# Where a name gives a salt, the structure may show the parent alone.
# Legend:
# [1] = target: T1, SERT (Homo sapiens, UniProt P31645); assay: Primary radioligand binding screen
# T1 construct: expressed in transfected cells
# Protocol: (§1) Evidence for interaction was based on the inhibition of the reference ligand-binding signal. […] Briefly, 50 μL aliquots of radioactive ligand (5 nM) were added to wells of a 96-well plate, which contained 25 μL of the reference or test ligands. We employed transfected cell lines expressing mainly human (unless otherwise specified) recombinant receptors, monoamine transporters, or ion channels for crude membrane preparation. Detailed information about our membrane preparation is well known in the art and can be obtained from publicly available protocol online. Crude membrane fractions containing the receptors were resuspended in standard binding buffer and 50 μL aliquots added to each well. The reactions were incubated at room temperature for 1.5 hours to allow for radioligand binding equilibration. Bound radioactivity was harvested by rapid filtration through a 0.3% polyethyleneimine-treated, 96-well filter mats using a 96-well Filtermate harvester. The dried filters were treated with melted scintillant and a Microbeta scintillation counter was utilized to measure the radioactivity retained on the filter.
# [2] = target: T2, M5 (Homo sapiens, UniProt P08912); assay: Primary radioligand binding screen
# T2 construct: expressed in transfected cells
# Protocol: as §1
# [3] = target: T3, 5-HT1E (Homo sapiens, UniProt P28566); assay: Primary radioligand binding screen
# T3 construct: expressed in transfected cells
# Protocol: as §1
# [4] = target: T4, Beta3 (Homo sapiens, UniProt P13945); assay: Primary radioligand binding screen
# T4 construct: expressed in transfected cells
# Protocol: as §1
# [5] = target: T5, NET (Homo sapiens, UniProt P23975); assay: Primary radioligand binding screen
# T5 construct: expressed in transfected cells
# Protocol: as §1
# [6] = target: T6, Alpha1A (Homo sapiens, UniProt P35348); assay: Primary radioligand binding screen
# T6 construct: expressed in transfected cells
# Protocol: as §1
# [7] = target: T7, DOR (Homo sapiens, UniProt P41143); assay: Primary radioligand binding screen
# T7 construct: expressed in transfected cells
# Protocol: as §1
# [8] = target: T8, D4 (Homo sapiens, UniProt P21917); assay: Primary radioligand binding screen
# T8 construct: expressed in transfected cells
# Protocol: as §1
# [9] = target: T9, 5-HT1B (Homo sapiens, UniProt P28222); assay: Primary radioligand binding screen
# T9 construct: expressed in transfected cells
# Protocol: as §1
# [10] = target: T10, DAT (Homo sapiens, UniProt Q01959); assay: Primary radioligand binding screen
# T10 construct: expressed in transfected cells
# Protocol: as §1
# [11] = target: T11, 5-HT7 (Homo sapiens, UniProt P34969); assay: Primary radioligand binding screen
# T11 construct: expressed in transfected cells
# Protocol: as §1
# [12] = target: T12, H2 (Homo sapiens, UniProt P25021); assay: Primary radioligand binding screen
# T12 construct: expressed in transfected cells
# Protocol: as §1
# [13] = target: T13, 5-hT5A (Homo sapiens, UniProt P47898); assay: Primary radioligand binding screen
# T13 construct: expressed in transfected cells
# Protocol: as §1
# [14] = target: T14, 5-HT1A (Homo sapiens, UniProt P08908); assay: Primary radioligand binding screen
# T14 construct: expressed in transfected cells
# Protocol: as §1
# [15] = target: T15, Alpha2A (Homo sapiens, UniProt P08913); assay: Primary radioligand binding screen
# T15 construct: expressed in transfected cells
# Protocol: as §1
# [16] = target: T16, Sigma 1 (Homo sapiens, UniProt Q99720); assay: Molecular target profiling; type: binding
# [17] = Solubilizing dezocine in formulations
# Excerpt: All further solutions were created at about pH 4. […] No higher concentrations were attempted with this formulation.
# [18] = tested on: GABAA; assay: Primary radioligand binding screen; parameters: species or system human; conditions: dezocine 10 μM
# Protocol: as §1
# [19] = tested on: chronic constriction injury (CCI) rats; assay: Thermal hyperalgesia, paw withdrawal latency in CCI model; type: in vivo, rat; conditions: 3 mg/kg IP daily, days 1-10 after CCI, vs NS group, P<0.05
# Protocol: CCI procedures on the sciatic nerve of male SD rats were performed as previously described. Briefly, after rats were anesthetized by i.p. injection of sodium pentobarbital (40 mg/kg), the right sciatic nerve of the mid-thigh level was exposed. Chromic gut 4-0 was loosely tied around the nerve for 4 ligatures with about 1 mm between knots. The ligation was performed to just barely reduce the diameter of sciatic nerve. […] In the sham group, the sciatic nerve was exposed without ligation. The incisions of rats were closed in layers. After recovery from anesthesia, rats were housed individually in the clear plastic cages with soft bedding covered with 3-6 cm of sawdust.
# Same volume of normal saline (2 ml) was injected in the other two groups at the same time.
# The paw withdrawal latency (PWL) to radiant heat was used to evaluate thermal hyperalgesia for nociceptive response as previously described. Rats were placed in transparent plexiglass cage (23×18×13 cm) with a piece of 3-mm-thick glass floor and received heat radiation after acclimating to the environments for 30 minutes. […] A digital timer automatically measured the duration between the starting of heat and the paw withdrawal, which was considered as the PWL. The PWL was measured in 0.1 second and a maximum of 20 seconds exposure to radiation was set to avoid injury. […]
# [20] = target: T16, Sigma 1; assay: Primary radioligand binding screen; parameters: expressed in transfected cells
# Protocol: as §1
# [21] = target: T17, human cloned SERT (Homo sapiens, UniProt P31645); assay: Serotonin reuptake assay in HEK 293 cells; type: cell-based; conditions: mean±SE
# T17 construct: expressed in transfected cells
# Protocol: In brief, Human Embryonic Kidney 293 cells were plated in Poly-L-Lys (PLL) coated 384-well black clear bottom cell culture plates in DMEM+1% dFBS, at a density of 15,000 cells per well in a total volume of 40 μl. The cells were incubated for a minimum of 6 hours before use in the assays. The medium was removed and 20 μL of assay buffer (20 mM HEPES, 1×HBSS, pH 7.40) was added, followed by 5 μL of 5× drug solutions. The plate was incubated at 37° C. for 30 min. After the incubation, 25 μL of dye solution was added and fluorescence intensity was measured after […] at 37° C., using FlexStation II (bottom read mode, Excitation at 440 nm, Emission at 520 nm with 510 nm cut-off) from the Molecular Devices. […] The half maximal inhibitory concentration were determined and expressed as pIC50 (pIC50=−log (IC50)).
# [22] = tested on: morphine dependent rats; assay: Morphine withdrawal syndrome scoring
# Protocol: (1) The same volumes of normal saline (NS) were received subcutaneously in the naïve group. All other interventional drugs are administered by intraperitoneal injection.
# T2 sequence (P08912 whole entry): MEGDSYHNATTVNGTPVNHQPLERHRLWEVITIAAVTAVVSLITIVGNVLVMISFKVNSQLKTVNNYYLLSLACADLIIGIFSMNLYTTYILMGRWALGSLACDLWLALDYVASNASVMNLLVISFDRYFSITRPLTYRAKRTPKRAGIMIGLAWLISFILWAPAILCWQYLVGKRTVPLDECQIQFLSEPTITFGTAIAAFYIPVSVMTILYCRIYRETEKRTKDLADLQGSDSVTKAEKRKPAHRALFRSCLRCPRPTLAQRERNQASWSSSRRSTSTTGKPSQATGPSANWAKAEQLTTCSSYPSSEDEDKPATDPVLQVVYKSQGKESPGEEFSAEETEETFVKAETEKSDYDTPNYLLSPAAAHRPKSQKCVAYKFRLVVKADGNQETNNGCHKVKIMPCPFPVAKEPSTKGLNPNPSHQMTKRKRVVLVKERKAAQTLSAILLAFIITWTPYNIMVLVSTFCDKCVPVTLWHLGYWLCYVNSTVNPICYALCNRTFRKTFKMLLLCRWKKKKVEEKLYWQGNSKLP
# T3 sequence (P28566 whole entry): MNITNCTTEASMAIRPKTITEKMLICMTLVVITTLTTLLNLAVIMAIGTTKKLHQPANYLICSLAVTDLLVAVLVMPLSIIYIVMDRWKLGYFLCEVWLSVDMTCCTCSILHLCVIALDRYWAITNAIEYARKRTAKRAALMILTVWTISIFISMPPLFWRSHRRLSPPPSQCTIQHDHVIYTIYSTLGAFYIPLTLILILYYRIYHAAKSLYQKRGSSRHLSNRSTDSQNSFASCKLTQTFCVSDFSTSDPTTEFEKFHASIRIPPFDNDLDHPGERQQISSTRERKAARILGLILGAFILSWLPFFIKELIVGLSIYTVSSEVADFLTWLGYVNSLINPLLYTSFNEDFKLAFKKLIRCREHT
# T11 sequence (P34969 whole entry): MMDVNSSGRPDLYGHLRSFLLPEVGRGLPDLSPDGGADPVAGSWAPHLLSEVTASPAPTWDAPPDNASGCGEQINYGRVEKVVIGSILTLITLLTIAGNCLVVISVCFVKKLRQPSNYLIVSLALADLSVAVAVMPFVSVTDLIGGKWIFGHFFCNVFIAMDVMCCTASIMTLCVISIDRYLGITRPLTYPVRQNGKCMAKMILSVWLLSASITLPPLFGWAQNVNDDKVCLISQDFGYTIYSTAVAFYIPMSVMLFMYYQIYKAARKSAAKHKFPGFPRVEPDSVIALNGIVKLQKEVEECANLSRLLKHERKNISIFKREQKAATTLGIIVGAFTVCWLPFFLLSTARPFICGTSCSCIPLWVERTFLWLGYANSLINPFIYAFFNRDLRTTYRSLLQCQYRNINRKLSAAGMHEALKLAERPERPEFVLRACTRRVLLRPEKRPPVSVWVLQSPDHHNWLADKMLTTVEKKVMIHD
# T12 sequence (P25021 whole entry): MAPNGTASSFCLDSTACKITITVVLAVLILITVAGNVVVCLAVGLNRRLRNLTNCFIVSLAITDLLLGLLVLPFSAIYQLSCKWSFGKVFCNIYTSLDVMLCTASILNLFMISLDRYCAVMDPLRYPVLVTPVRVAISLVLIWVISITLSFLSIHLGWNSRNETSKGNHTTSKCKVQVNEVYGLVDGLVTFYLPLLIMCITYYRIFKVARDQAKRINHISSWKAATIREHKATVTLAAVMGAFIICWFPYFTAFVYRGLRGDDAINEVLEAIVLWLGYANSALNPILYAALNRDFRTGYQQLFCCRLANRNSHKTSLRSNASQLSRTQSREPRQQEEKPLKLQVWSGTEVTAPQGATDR
# T15 sequence (P08913 whole entry): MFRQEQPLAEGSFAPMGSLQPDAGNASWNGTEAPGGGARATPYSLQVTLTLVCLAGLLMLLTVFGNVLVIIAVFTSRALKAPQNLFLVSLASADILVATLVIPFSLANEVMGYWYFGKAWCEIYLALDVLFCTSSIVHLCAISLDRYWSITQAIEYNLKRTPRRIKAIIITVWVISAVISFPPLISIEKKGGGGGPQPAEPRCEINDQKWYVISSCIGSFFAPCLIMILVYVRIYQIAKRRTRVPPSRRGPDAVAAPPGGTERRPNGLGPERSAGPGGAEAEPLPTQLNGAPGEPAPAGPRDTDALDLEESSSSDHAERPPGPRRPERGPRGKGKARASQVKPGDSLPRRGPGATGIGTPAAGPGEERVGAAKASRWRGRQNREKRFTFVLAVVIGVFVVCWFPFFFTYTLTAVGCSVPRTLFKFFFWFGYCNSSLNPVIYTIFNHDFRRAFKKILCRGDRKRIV
# T9 sequence (P28222 whole entry): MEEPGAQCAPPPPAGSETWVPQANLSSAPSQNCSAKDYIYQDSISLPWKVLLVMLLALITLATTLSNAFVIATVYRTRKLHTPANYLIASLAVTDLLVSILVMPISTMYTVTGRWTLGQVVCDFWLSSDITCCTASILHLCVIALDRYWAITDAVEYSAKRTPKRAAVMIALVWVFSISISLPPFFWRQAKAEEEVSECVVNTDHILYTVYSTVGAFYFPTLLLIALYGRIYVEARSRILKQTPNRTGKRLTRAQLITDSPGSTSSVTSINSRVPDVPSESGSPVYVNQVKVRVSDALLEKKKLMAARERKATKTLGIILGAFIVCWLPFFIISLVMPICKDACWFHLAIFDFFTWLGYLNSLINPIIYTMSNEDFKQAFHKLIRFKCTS
# T17 sequence (P31645 whole entry): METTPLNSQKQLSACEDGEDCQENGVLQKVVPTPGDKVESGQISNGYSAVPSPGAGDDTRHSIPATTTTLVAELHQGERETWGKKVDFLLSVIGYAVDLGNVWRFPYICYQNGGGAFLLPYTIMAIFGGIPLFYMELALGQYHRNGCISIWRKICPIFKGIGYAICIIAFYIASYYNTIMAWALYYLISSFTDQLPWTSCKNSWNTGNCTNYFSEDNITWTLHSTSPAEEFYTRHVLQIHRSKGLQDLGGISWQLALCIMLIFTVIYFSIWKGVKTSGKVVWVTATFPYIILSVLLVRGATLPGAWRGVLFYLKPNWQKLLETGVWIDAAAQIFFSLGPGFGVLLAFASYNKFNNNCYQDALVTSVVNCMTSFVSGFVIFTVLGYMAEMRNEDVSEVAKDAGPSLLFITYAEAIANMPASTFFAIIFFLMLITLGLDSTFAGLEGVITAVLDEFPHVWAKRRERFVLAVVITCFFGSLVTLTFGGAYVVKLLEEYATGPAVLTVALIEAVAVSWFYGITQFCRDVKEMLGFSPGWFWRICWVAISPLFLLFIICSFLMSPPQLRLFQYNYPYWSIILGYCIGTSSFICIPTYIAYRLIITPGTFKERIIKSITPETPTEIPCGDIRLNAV
# T1 sequence (P31645 whole entry): as above
# T4 sequence (P13945 whole entry): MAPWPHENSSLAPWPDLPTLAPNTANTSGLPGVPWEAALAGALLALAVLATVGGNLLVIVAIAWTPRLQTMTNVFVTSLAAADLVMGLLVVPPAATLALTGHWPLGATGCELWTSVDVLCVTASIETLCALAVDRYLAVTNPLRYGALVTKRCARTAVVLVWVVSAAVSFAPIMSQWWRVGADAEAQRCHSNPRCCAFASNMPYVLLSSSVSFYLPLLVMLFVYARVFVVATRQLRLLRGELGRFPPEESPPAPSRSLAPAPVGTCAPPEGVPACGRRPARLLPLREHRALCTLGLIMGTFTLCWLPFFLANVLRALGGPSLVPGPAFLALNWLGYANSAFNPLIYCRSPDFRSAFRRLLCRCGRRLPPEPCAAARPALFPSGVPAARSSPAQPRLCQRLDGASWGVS
# T10 sequence (Q01959 whole entry): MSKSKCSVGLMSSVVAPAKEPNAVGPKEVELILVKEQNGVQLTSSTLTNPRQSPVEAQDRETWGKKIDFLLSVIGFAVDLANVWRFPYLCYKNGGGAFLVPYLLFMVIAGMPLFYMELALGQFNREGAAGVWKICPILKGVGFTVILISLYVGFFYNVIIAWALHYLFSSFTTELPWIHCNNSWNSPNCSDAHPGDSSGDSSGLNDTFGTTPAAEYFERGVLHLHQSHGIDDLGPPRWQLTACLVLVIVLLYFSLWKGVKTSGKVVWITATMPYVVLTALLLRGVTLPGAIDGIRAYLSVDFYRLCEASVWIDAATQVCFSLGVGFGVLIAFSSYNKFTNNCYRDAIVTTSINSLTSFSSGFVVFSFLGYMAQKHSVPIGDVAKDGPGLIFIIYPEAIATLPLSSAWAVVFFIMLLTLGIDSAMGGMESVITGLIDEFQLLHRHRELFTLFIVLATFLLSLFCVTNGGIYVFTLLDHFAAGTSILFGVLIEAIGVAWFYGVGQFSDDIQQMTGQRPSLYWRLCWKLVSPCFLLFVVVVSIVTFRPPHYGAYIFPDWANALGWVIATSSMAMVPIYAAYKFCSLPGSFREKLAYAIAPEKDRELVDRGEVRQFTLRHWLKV
structure (smiles),measurement,setting,value
"C[C@@]12CCCCC[C@@H](Cc3ccc(O)cc31)[C@@H]2N [Dezocine, (−)-13β-amino-5,6,7,8,9,10,11,12-octahydro-5α-methyl-5,11-methanobenxocyclodecen-31-ol, hydrobromide]",inhibition at 10 µM,[1],97.7%
same,inhibition at 10 µM,[2],19.4%
same,inhibition at 10 µM,[3],-2.4%
same,inhibition at 10 µM,[4],-15%
same,inhibition at 10 µM,[5],86.4%
same,inhibition at 10 µM,[6],4.9%
same,inhibition at 10 µM,[7],58.5%
same,inhibition at 10 µM,[8],-5.1%
same,inhibition at 10 µM,[9],-14.1%
same,inhibition at 10 µM,[10],15.8%
same,inhibition at 10 µM,[11],20.9%
same,inhibition at 10 µM,[12],33.6%
same,inhibition at 10 µM,[13],3.4%
same,inhibition at 10 µM,[14],43.5%
same,inhibition at 10 µM,[15],40.9%
same,interaction with sigma 1 receptor,[16],interact with sigma 1 receptor
same,Maximum Dezocine Concentration,"[17]; 31% Propylene Glycol, 1% Lactic Acid, highest concentration attempted",30 mg/mL
same,solubility,"[17]; 31% propylene glycol, 6% PVOH solution, pH 4, aqueous with cosolvent or surfactant or cyclodextrin",10000 µg/mL
same,Maximum Dezocine Concentration,[17]; 50% Propylene Glycol,2 mg/mL
same,Maximum Dezocine Concentration,"[17]; Ethanol (200-proof), highest concentration attempted",1 mg/mL
same,Maximum Dezocine Concentration,[17]; Propylene Glycol (pure),10 mg/mL
same,Maximum Dezocine Concentration,[17]; Water,insoluble
same,solubility,[17]; water,< 1000 µg/mL
same,% inhibition,[18],−10.1%
same,paw withdrawal latency (PWL),[19],significantly improved
same,inhibition at 10 µM,[20],21.7%
same,pIC50 of SERT (serotonin reuptake),[21],5.86±0.17
same,total score of morphine withdrawal symptoms,"[22]; days 1-7, vs DMSO group, n=12, P<0.01 (FIG. 18)",alleviated the morphine withdrawal syndrome
same,total score of morphine withdrawal symptoms,"[22]; dezocine 5 mg/kg IP, days 1-7, vs NS group, P<0.01",decreased significantly
